According to US8357798B2, “Process for preparing N-alkylated hydroxypyrimidinone compounds” (Merck Sharp & Dohme Corp., priority 2004, dated 2013):
Where a name gives a salt, the structure may show the parent alone.

Assays:
[1] = hygroscopicity (vapor sorption analysis); format: physicochemical; settings: for weight when equilibrated back down to 5% RH: 5% RH after 95% RH; for weight increase when equilibrated at 95% RH: 95% RH at 25° C.
Protocol: Hygroscopicity data was obtained on a VTI Symmetrical Vapor Sorption Analyzer Model SGA-1. Data was collected at room temperature from 5-95% relative humidity and back, 5% relative humidity change per step. Equilibrium conditions were 0.01 weight percent change in 5 minutes with a maximum equilibration time of 180 minutes.

[2] = tested on: acute HIV infection of T-lymphoid cells; assay: assay for the inhibition of acute HIV infection of T-lymphoid cells; format: cell-based; settings: in accordance with Vacca et al., PNAS 1994, 91: 4096-4100
HIV integrase = HIV integrase (Human immunodeficiency virus type 1 group M subtype B, UniProt P04585); assay: integrase inhibition assay in which strand transfer is catalyzed by recombinant integrase; format: biochemical; settings: assay of Example 193 of WO 02/30930
Excerpt: Compound A is an inhibitor of HIV integrase. […] The strand transfer assay is described in Example 193 of WO 02/30930.

solubility in water = format: physicochemical
[3] = listed as Form 1 Crystalline Potassium Salt of Compound A

Cc1nnc(C(=O)NC(C)(C)c2nc(C(=O)NCc3ccc(F)cc3)c(O)c(=O)n2C)o1 [listing 1 of 2 here]
weight when equilibrated back down to 5% RH [1, 3]: returned back to approximately its dry weight
weight increase when equilibrated at 95% RH [1, 3]: 1.8%
phase by XRPD after the hygroscopicity experiment ([1]; XRPD after 5-95% RH cycle): had not changed phases

Cc1nnc(C(=O)NC(C)(C)c2nc(C(=O)NCc3ccc(F)cc3)c(O)c(=O)n2C)o1 [listing 2 of 2 here]
weight when equilibrated back down to 5% RH [1]: returned to its dry weight
weight increase when equilibrated at 95% RH [1]: 1%

Cc1nnc(C(=O)NC(C)(C)c2nc(C(=O)NCc3ccc(F)cc3)c(O)c(=O)n2C)o1 [Compound A, N-(4-fluorobenzyl)-5-hydroxy-1-methyl-2-(1-methyl-1-{[(5-methyl-1,3,4-oxadiazol-2-yl)carbonyl]amino}ethyl)-6-oxo-1,6-dihydropyrimidine-4-carboxamide]
inhibition of acute HIV infection of T-lymphoid cells [2]: active
inhibition of integrase strand transfer (HIV integrase): potent inhibitor
solubility in water (solubility in water): limited

Cc1nnc(C(=O)NC(C)(C)c2nc(C(=O)NCc3ccc(F)cc3)c(O)c(=O)n2C)o1 [potassium salt of Compound A]
solubility in water (solubility in water): comparatively quite soluble
solubility in water compared to the free base (solubility in water; relative to Compound A free base): significantly more soluble
